From ChEMBL document CHEMBL1201862, “PubChem BioAssay data set” (2004)
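96-well plates; 48 h exposure; 5 concentrations. Endpoints by linear interpolation between flanking doses. Not reached: highest tested concentration assigned. GI50 marks 50% less growth.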 Calls of active or inactive are those of the source. Rule as the data show it: active = GI50 up to about 1.1 µM and inactive = higher. Where a SMILES comes first, the peptide text is derived from it. The star is where a group is joined. Boc = CC(C)(C)OC(=O)*; tBu = CC(C)(C)*

Experiments:
Experiment in all cases: growth of human tumour cells (NCI), 48 h
[1] = tested on: A549
[2] = tested on: SK-MEL-28
[3] = tested on: HT-29
[4] = tested on: ACHN
[5] = tested on: NCI-H460
[6] = tested on: SF-295
[7] = tested on: SK-MEL-5
[8] = tested on: UACC-62
[9] = tested on: Hs-578T
[10] = tested on: SW-620
[11] = tested on: 786-0
[12] = tested on: BT-549
[13] = tested on: TK-10
[14] = tested on: LOX IMVI
[15] = tested on: NCI-H23
[16] = tested on: PC-3
[17] = tested on: EKVX
[18] = tested on: RXF 393
[19] = tested on: KM12
[20] = tested on: NCI-H522

SMILES | GI50 [1] | GI50 [2] | GI50 [3] | GI50 [4] | GI50 [5] | GI50 [6] | GI50 [7] | GI50 [8] | GI50 [9] | GI50 [10] | GI50 [11] | GI50 [12] | GI50 [13] | GI50 [14] | GI50 [15] | GI50 [16] | GI50 [17] | GI50 [18] | GI50 [19] | GI50 [20]
CCOC(=O)C(NC(=O)c1ccccc1)(Nc1ccc(S(=O)(=O)Nc2ncccn2)cc1)C(F)(F)F (configuration not stated) | > 100 µM (inactive) | > 100 µM (inactive) | > 100 µM (inactive) | > 100 µM (inactive) | > 100 µM (inactive) | > 100 µM (inactive) | > 100 µM (inactive) | > 100 µM (inactive) | > 100 µM (inactive) | > 100 µM (inactive) | > 100 µM (inactive) | > 100 µM (inactive) | > 100 µM (inactive) | > 100 µM (inactive) | > 100 µM (inactive) | > 100 µM (inactive) | > 100 µM (inactive) | > 100 µM (inactive) | > 100 µM (inactive) | –
CCOC(=O)[C@H]1O[C@@H]1C(=O)NC(CC(C)C)C(=O)NCCC(C)C (some centres not stated) | > 100 µM (inactive) | > 100 µM (inactive) | > 100 µM (inactive) | – | > 100 µM (inactive) | > 100 µM (inactive) | > 100 µM (inactive) | > 100 µM (inactive) | > 100 µM (inactive) | > 100 µM (inactive) | > 100 µM (inactive) | > 100 µM (inactive) | – | – | > 100 µM (inactive) | > 100 µM (inactive) | > 100 µM (inactive) | – | > 100 µM (inactive) | > 100 µM (inactive)
CCCCSC1=N/C(=C\c2ccco2)C(Cl)=N1 | > 100 µM (inactive) | > 100 µM (inactive) | > 100 µM (inactive) | > 100 µM (inactive) | > 100 µM (inactive) | > 100 µM (inactive) | > 100 µM (inactive) | > 100 µM (inactive) | > 100 µM (inactive) | > 100 µM (inactive) | > 100 µM (inactive) | > 100 µM (inactive) | > 100 µM (inactive) | – | > 100 µM (inactive) | > 100 µM (inactive) | > 100 µM (inactive) | > 100 µM (inactive) | > 100 µM (inactive) | > 100 µM (inactive)
CC12CCCC3(CC(=O)C(C)(C)C3C(=O)C1)C2 (configuration not stated) | > 100 µM (inactive) | > 100 µM (inactive) | > 100 µM (inactive) | > 100 µM (inactive) | > 100 µM (inactive) | > 100 µM (inactive) | > 100 µM (inactive) | > 100 µM (inactive) | > 100 µM (inactive) | > 100 µM (inactive) | > 100 µM (inactive) | > 100 µM (inactive) | > 100 µM (inactive) | > 100 µM (inactive) | > 100 µM (inactive) | > 100 µM (inactive) | > 100 µM (inactive) | – | > 100 µM (inactive) | > 100 µM (inactive)
COc1ccc2c(c1OC)C(=O)N/C2=C\c1c(CCN(C)C)cc2c(c1OC)OCO2 | > 100 µM (inactive) | > 100 µM (inactive) | > 100 µM (inactive) | > 100 µM (inactive) | > 100 µM (inactive) | 43.7 µM (inactive) | 42.4 µM (inactive) | – | 13.6 µM (inactive) | > 100 µM (inactive) | > 100 µM (inactive) | > 100 µM (inactive) | > 100 µM (inactive) | – | > 100 µM (inactive) | > 100 µM (inactive) | > 100 µM (inactive) | 22.7 µM (inactive) | > 100 µM (inactive) | 37.6 µM (inactive)
N#C/C(=C1\N=C(c2ccccc2O)Oc2ccccc21)c1ccc([N+](=O)[O-])cc1 | > 100 µM (inactive) | > 100 µM (inactive) | > 100 µM (inactive) | > 100 µM (inactive) | > 100 µM (inactive) | 72.3 µM (inactive) | > 100 µM (inactive) | > 100 µM (inactive) | 62.2 µM (inactive) | > 100 µM (inactive) | 93.8 µM (inactive) | > 100 µM (inactive) | > 100 µM (inactive) | > 100 µM (inactive) | > 100 µM (inactive) | > 100 µM (inactive) | > 100 µM (inactive) | > 100 µM (inactive) | > 100 µM (inactive) | –
CCC(=O)N1C(=O)C(CC)(CC)C(=O)N1C(=O)CC | > 100 µM (inactive) | > 100 µM (inactive) | > 100 µM (inactive) | > 100 µM (inactive) | > 100 µM (inactive) | > 100 µM (inactive) | > 100 µM (inactive) | > 100 µM (inactive) | > 100 µM (inactive) | > 100 µM (inactive) | > 100 µM (inactive) | > 100 µM (inactive) | > 100 µM (inactive) | – | > 100 µM (inactive) | > 100 µM (inactive) | > 100 µM (inactive) | > 100 µM (inactive) | > 100 µM (inactive) | > 100 µM (inactive)
COCCn1cnc2c(Cl)nc(Nc3ccccc3)nc21 | 48.8 µM (inactive) | 36 µM (inactive) | 64 µM (inactive) | 17.9 µM (inactive) | 82.4 µM (inactive) | > 100 µM (inactive) | 38.7 µM (inactive) | 25.6 µM (inactive) | 24.1 µM (inactive) | 32.3 µM (inactive) | 69.2 µM (inactive) | 27.4 µM (inactive) | > 100 µM (inactive) | 17 µM (inactive) | 33.3 µM (inactive) | 22.3 µM (inactive) | 21.3 µM (inactive) | 20.9 µM (inactive) | > 100 µM (inactive) | –
C/C=C1/CN2CCC34c5ccccc5N(C)C23C2CC1C4(C(=O)OC)C(O)O2 (configuration not stated) | > 100 µM (inactive) | > 100 µM (inactive) | > 100 µM (inactive) | > 100 µM (inactive) | > 100 µM (inactive) | > 100 µM (inactive) | > 100 µM (inactive) | > 100 µM (inactive) | > 100 µM (inactive) | > 100 µM (inactive) | > 100 µM (inactive) | > 100 µM (inactive) | > 100 µM (inactive) | > 100 µM (inactive) | > 100 µM (inactive) | > 100 µM (inactive) | > 100 µM (inactive) | – | > 100 µM (inactive) | > 100 µM (inactive)
CN(/N=C/c1ccccn1)C1=NCCN1 | > 100 µM (inactive) | > 100 µM (inactive) | > 100 µM (inactive) | > 100 µM (inactive) | > 100 µM (inactive) | > 100 µM (inactive) | > 100 µM (inactive) | > 100 µM (inactive) | > 100 µM (inactive) | > 100 µM (inactive) | > 100 µM (inactive) | > 100 µM (inactive) | – | > 100 µM (inactive) | > 100 µM (inactive) | > 100 µM (inactive) | > 100 µM (inactive) | > 100 µM (inactive) | > 100 µM (inactive) | > 100 µM (inactive)
NC(=O)c1cccc(OCC(O)CO)c1 (configuration not stated) | > 100 µM (inactive) | > 100 µM (inactive) | > 100 µM (inactive) | > 100 µM (inactive) | > 100 µM (inactive) | > 100 µM (inactive) | > 100 µM (inactive) | > 100 µM (inactive) | > 100 µM (inactive) | > 100 µM (inactive) | > 100 µM (inactive) | > 100 µM (inactive) | > 100 µM (inactive) | – | > 100 µM (inactive) | > 100 µM (inactive) | > 100 µM (inactive) | – | > 100 µM (inactive) | > 100 µM (inactive)
Cc1ccc(NC(=O)CC(=O)N2N=C(N(c3ccccc3)c3ccccc3)CC2c2ccccc2)cc1 (configuration not stated) | > 100 µM (inactive) | > 100 µM (inactive) | > 100 µM (inactive) | > 100 µM (inactive) | > 100 µM (inactive) | > 100 µM (inactive) | > 100 µM (inactive) | > 100 µM (inactive) | 31.6 µM (inactive) | > 100 µM (inactive) | > 100 µM (inactive) | > 100 µM (inactive) | > 100 µM (inactive) | – | > 100 µM (inactive) | 85.7 µM (inactive) | > 100 µM (inactive) | 52.8 µM (inactive) | > 100 µM (inactive) | > 100 µM (inactive)
CC(=O)Oc1ccc2cc(-c3ccccc3OC(C)=O)c(=O)oc2c1 | 32.1 µM (inactive) | 38.6 µM (inactive) | > 100 µM (inactive) | 30.7 µM (inactive) | 86.5 µM (inactive) | 50.4 µM (inactive) | – | – | 56.5 µM (inactive) | 64.6 µM (inactive) | 25.6 µM (inactive) | 4.17 µM (inactive) | – | 64.9 µM (inactive) | 31.6 µM (inactive) | > 100 µM (inactive) | 25.2 µM (inactive) | – | 33.5 µM (inactive) | 4.3 µM (inactive)
CN(C)CCn1c(=O)c2ccc(NCCN3CCNCC3)c3c(=O)c4ccccc4n(c1=O)c23 | 0.962 µM (active) | 6.61 µM (inactive) | 0.82 µM (active) | 1.27 µM (inactive) | 0.586 µM (active) | 1.02 µM (active) | 3.47 µM (inactive) | 3.47 µM (inactive) | 3.04 µM (inactive) | 0.378 µM (active) | 0.358 µM (active) | 7.33 µM (inactive) | 4.86 µM (inactive) | 1.69 µM (inactive) | 2.3 µM (inactive) | 1.79 µM (inactive) | 1.87 µM (inactive) | – | 1.63 µM (inactive) | 1.07 µM (active)
CC(OC(C)(C)C)C(NC(=O)C(N)CCCCNC(=O)OC(C)(C)C)C(=O)NC(Cc1ccccc1)C(=O)O (configuration not stated) (H-Lys(Boc)-Thr(tBu)-Phe-OH; configuration not given here) | > 100 µM (inactive) | > 100 µM (inactive) | > 100 µM (inactive) | > 100 µM (inactive) | > 100 µM (inactive) | > 100 µM (inactive) | > 100 µM (inactive) | > 100 µM (inactive) | > 100 µM (inactive) | > 100 µM (inactive) | > 100 µM (inactive) | > 100 µM (inactive) | > 100 µM (inactive) | > 100 µM (inactive) | > 100 µM (inactive) | > 100 µM (inactive) | > 100 µM (inactive) | > 100 µM (inactive) | > 100 µM (inactive) | –
